# Measured values: patent US8283358B2, “N-sulfonamido polycyclic pyrazolyl compounds” (Elan Pharmaceuticals, Inc., priority 2008, dated 2012)
# Where two headings read alike, the source gives them in different places.
# Target: T1, gamma-secretase (partially purified extract of IMR-32 cell membranes; substrate MBP-C125 Swe fusion protein, cleavage at the Aβ40 site) (Homo sapiens, UniProt P49768)
# T1 construct: a partially purified extract of IMR-32 cell membranes as the gamma-secretase enzyme preparation; endogenous in cells; host or cells: IMR-32 cell membranes, partially purified extract
# Assay: Gamma-secretase APP enzyme assay (Example A)
# Assay type: biochemical
# Details: assay described in Example A
# Description: The gamma-secretase APP enzyme assay was designed to measure the specific proteolytic cleavage of an APP substrate (MBP-C125 Swe fusion protein) at the Aβ40 site. […] This assay involved two steps beginning with the enzymatic reaction generating a cleavage product that was captured with an immobilized antibody specific for the neo-epitope Aβ40 site. The captured cleavage product was then detected in a sandwich ELISA assay with a biotinylated reporter antibody that is specific to Aβ(17-28). Streptavidin-linked alkaline phosphatase was then added that would generate a fluorescent signal proportional to the amount of cleavage product.
# This warmed solution of BigCHAPS (N,N-Bis(3-D-gluconamidopropyl)cholamide) detergent was used to dissolve Brain Extract Type-V (lipid containing a minimum of 40% phosphatidylethanolamine) from Sigma (St. Louis, Mo.) to a concentration of 8 mg/ml. This solution containing BigCHAPS and lipid at 8 mg/ml is then diluted to 0.53 mg/ml lipid with a pre-warmed solution of Hepes and sodium chloride.
# Gamma-secretase was then added to a 96-well micro-titre plate and then incubated with various concentrations of inhibitor for 30 minutes at 37° C. MBPC125 substrate was then added to initiate the reaction that would run for two hours at 37° C. The reaction was quenched with the addition of SDS to a final concentration of 0.1% and then 100 μl of the reaction mixture was transferred to a capture ELISA plate and incubated overnight at 4° C. Detection of the cleavage product was performed using a standard sandwich ELISA assay and quantified using a six point standard curve.
# [1] = class symbols, read-out: γAPP IC50
compound,measurement,setting,value
NC1CCCCC1Nc1ccc(C2CC3Cc4n[nH]cc4C(C2)N3S(=O)(=O)c2ccc(C(F)(F)F)cc2)cc1 (stereo not drawn) [compound 117],IC50,[1],> 1000 nM
O=S(=O)(c1ccc(C(F)(F)F)cc1)N1C2c3c[nH]nc3C(F)(F)C1c1cccc(F)c12 (stereo not drawn) [compound 127],IC50,[1],< 100 nM
Cc1noc(-c2ccc3c(c2)C2c4cn[nH]c4CC3N2S(=O)(=O)c2ccc(C(F)(F)F)nc2)n1 (stereo not drawn) [compound 202],IC50,[1],> 1000 nM
O=S(=O)(c1ccc(C(F)(F)F)nc1)N1C2Cc3[nH]ncc3C1c1ccccc12 (stereo not drawn) [compound 197],IC50,[1],< 100 nM
O=S(=O)(c1ccc(C(F)(F)F)nc1)N1C2Cc3[nH]ncc3C1c1c(C3CC3)cccc12 (racemic) [compound 274],IC50,[1],< 100 nM
COC(=O)c1cccc2c1C1Cc3[nH]ncc3C2N1S(=O)(=O)c1ccc(C(F)(F)F)nc1 (stereo not drawn) [compound 227],IC50,[1],100 to 499 nM
"O=S(=O)(c1ccc(C(F)(F)F)cc1)N1C2Cc3n[nH]cc3C1c1c(F)cccc12 (single isomer, unassigned) [compound 114]",IC50,"γAPP IC50 (nM), class symbols",500 to 999 nM
O=S(=O)(c1ccc(C(F)(F)F)cc1)N1C2Cc3[nH]ncc3C1c1c2ccc2ccccc12 (stereo not drawn) [compound 170],IC50,[1],< 100 nM
O=S(=O)(c1ccc(C(F)(F)F)nc1)N1C2Cc3[nH]ncc3C1c1cccc(CF)c12 (racemic) [compound 257],IC50,[1],< 100 nM
Cc1noc(-c2cccc3c2C2Cc4[nH]ncc4C3N2S(=O)(=O)c2ccc(C(F)(F)F)nc2)n1 (stereo not drawn) [compound 234],IC50,[1],< 100 nM
O=C1c2n[nH]cc2C2c3ccccc3C1N2S(=O)(=O)c1ccc(C(F)(F)F)nc1 (stereo not drawn) [compound 200],IC50,[1],< 100 nM
"N#Cc1ccc2c(c1)C1Cc3n[nH]cc3C2N1S(=O)(=O)c1ccc(C(F)(F)F)nc1 (single isomer, unassigned) [compound 174]",IC50,[1],< 100 nM
O=S(=O)(c1ccc(C(F)(F)F)cc1)N1C2Cc3[nH]ncc3C1c1cnccc12 (stereo not drawn) [compound 120],IC50,[1],> 1000 nM
O=S(=O)(c1ccc(C(F)(F)F)cc1)N1C2Cc3n[nH]cc3C1c1c(F)cccc12 (stereo not drawn) [compound 96],IC50,"γAPP IC50 (nM), class symbols",< 100 nM
O=S(=O)(c1ccc(C(F)(F)F)nc1)N1C2Cc3n[nH]cc3C1c1cccc(F)c12 (stereo not drawn) [compound 183],IC50,[1],< 100 nM
"O=S(=O)(c1ccc(C(F)(F)F)nc1)N1C2Cc3n[nH]cc3C1c1nc(Br)ccc12 (single isomer, unassigned) [compound 248]",IC50,[1],< 100 nM
O=S(=O)(c1ccc(C(F)(F)F)cc1)N1C2c3cc(F)c(F)cc3C1C(F)(F)c1n[nH]cc12 (stereo not drawn) [compound 77],IC50,[1],< 100 nM
O=S(=O)(c1ccc(C(F)(F)F)cc1)N1C2c3ccccc3C1C(F)(F)c1[nH]ncc12 (racemic) [compound 74],IC50,[1],< 100 nM
Cc1noc(-c2cccc3c2C2Cc4[nH]ncc4C3N2S(=O)(=O)c2ccc(C(F)(F)F)nc2)n1 (stereo not drawn) [compound 235],IC50,[1],100 to 499 nM
"O=S(=O)(c1ccc(C(F)(F)F)cc1)N1C2c3cn[nH]c3C(F)C1c1cccc(F)c12 (single isomer, unassigned) [compound 262]",IC50,[1],> 1000 nM
O=S(=O)(c1ccc(C(F)(F)F)nc1)N1C2Cc3[nH]ncc3C1c1ccccc12 (stereo not drawn) [compound 98],IC50,[1],< 100 nM
O=S(=O)(c1ccc(C(F)(F)F)nc1)N1C2Cc3[nH]ncc3C1c1nc(C3CC3)ccc12 (stereo not drawn) [compound 256],IC50,[1],> 1000 nM
O=S(=O)(c1ccc(C(F)(F)F)nc1)N1C2Cc3n[nH]cc3C1c1c(F)ccc(F)c12 (stereo not drawn) [compound 149],IC50,[1],100 to 499 nM
O=S(=O)(c1ccc(C(F)(F)F)cc1)N1C2Cc3[nH]ncc3C1Cc1ccccc12 (racemic) [compound 163],IC50,[1],< 100 nM
O=S(=O)(c1ccc(C(F)(F)F)nc1)N1C2Cc3ccccc3C1c1c[nH]nc1C2 (stereo not drawn) [compound 88],IC50,[1],< 100 nM
Cc1noc(-c2ccc3c(c2)C2c4cn[nH]c4CC3N2S(=O)(=O)c2ccc(C(F)(F)F)nc2)n1 (stereo not drawn) [compound 201],IC50,[1],> 1000 nM
O=S(=O)(c1ccc(C(F)(F)F)cc1)N1C2=Cc3c(-c4cccc(C(F)(F)F)c4)cccc3C1Cc1n[nH]cc12 (stereo not drawn) [compound 177],IC50,[1],< 100 nM
"O=S(=O)(c1ccc(C(F)(F)F)nc1)N1C2Cc3[nH]ncc3C1c1cc(C3CC3)ccc12 (single isomer, unassigned) [compound 247]",IC50,[1],< 100 nM
O=c1oc2cc3c(cc2o1)C1c2cn[nH]c2CC3N1S(=O)(=O)c1ccc(C(F)(F)F)cc1 (racemic) [compound 109],IC50,"numeric bounds given instead of class symbols, read-out: γAPP IC50",> 100 nM
O=S(=O)(c1ccc(C(F)(F)F)cc1)N1C2Cc3cccc(F)c3C1c1cn[nH]c1C2 (racemic) [compound 182],IC50,[1],< 100 nM
O=S(=O)(c1ccc(C(F)(F)F)nc1)N1C2Cc3n[nH]cc3C1c1cccc(CO)c12 (stereo not drawn) [compound 252],IC50,[1],< 100 nM
O=S(=O)(c1ccc(C(F)(F)F)cc1)N1C2Cc3[nH]ncc3C1CC(c1ccc(-c3cscn3)cc1)C2 (stereo not drawn) [compound 116],IC50,[1],< 100 nM
O=S(=O)(c1ccc(C(F)(F)F)nc1)N1C2Cc3c(C4CC4)cccc3C1Cc1n[nH]cc12 (stereo not drawn) [compound 135],IC50,[1],< 100 nM
"O=S(=O)(c1ccc(C(F)(F)F)nc1)N1C2Cc3[nH]ncc3C1c1ccc(Cl)cc12 (single isomer, unassigned) [compound 224]",IC50,[1],< 100 nM
"O=S(=O)(c1ccc(C(F)(F)F)nc1)N1C2Cc3[nH]ncc3C1c1ncc(F)cc12 (single isomer, unassigned) [compound 259]",IC50,"γAPP IC50 (nM), class symbols",> 1000 nM
"Cn1cc(C2CC3Cc4[nH]ncc4C(C2)N3S(=O)(=O)c2ccc(Cl)cc2)nn1 (single isomer, unassigned) [compound 138]",IC50,[1],500 to 999 nM
O=S(=O)(c1ccc(C(F)(F)F)nc1)N1C2/C(=N/O)c3[nH]ncc3C1c1cccc(Cl)c12 (stereo not drawn) [compound 265],IC50,[1],< 100 nM
"O=S(=O)(c1ccc(C(F)(F)F)cc1)N1C2Cc3[nH]ncc3C1c1cccnc12 (single isomer, unassigned) [compound 99]",IC50,[1],> 1000 nM
O=S(=O)(c1ccc(Cl)cc1)N1C2Cc3[nH]ncc3C1c1c(F)cccc12 (racemic) [compound 209],IC50,[1],< 100 nM
O=S(=O)(c1ccc(C(F)(F)F)nc1)N1C2Cc3[nH]ncc3C1c1cc(Br)ccc12 (stereo not drawn) [compound 250],IC50,[1],< 100 nM
O=S(=O)(c1ccc(C(F)(F)F)nc1)N1C2Cc3[nH]ncc3C1c1cccc(-c3ccc(F)cc3)c12 (racemic) [compound 266],IC50,[1],< 100 nM
"O=C1c2[nH]ncc2C2c3cccc(F)c3C1N2S(=O)(=O)c1ccc(C(F)(F)F)nc1 (single isomer, unassigned) [compound 192]",IC50,[1],< 100 nM
O=S(=O)(c1ccc(C(F)(F)F)nc1)N1C2c3cc(F)c(F)cc3C1C(F)(F)c1[nH]ncc12 (racemic) [compound 157],IC50,[1],< 100 nM
O=S(=O)(c1ccc(C(F)(F)F)nc1)N1C2Cc3n[nH]cc3C1c1ncsc12 (stereo not drawn) [compound 189],IC50,"γAPP IC50 (nM), class symbols",100 to 499 nM
O=S(=O)(c1ccc(C(F)(F)F)nc1)N1C2Cc3[nH]ncc3C1c1cccc(C3CC3)c12 (racemic) [compound 270],IC50,[1],< 100 nM
O=S(=O)(c1ccc(C(F)(F)F)nc1)N1C2c3ccccc3C1[C@@H](F)c1n[nH]cc12 (stereo partly drawn) [compound 206],IC50,[1],< 100 nM
O=C1c2n[nH]cc2C2c3cc(F)c(F)cc3C1N2S(=O)(=O)c1ccc(C(F)(F)F)cc1 (stereo not drawn) [compound 69],IC50,[1],< 100 nM
O=C1c2n[nH]cc2C2c3cccc(F)c3C1N2S(=O)(=O)c1ccc(C(F)(F)F)cc1 (stereo not drawn) [compound 104],IC50,[1],< 100 nM
O=S(=O)(c1ccc(C(F)(F)F)nc1)N1C2Cc3[nH]ncc3C1c1ncc(F)cc12 (racemic) [compound 258],IC50,"γAPP IC50 (nM), class symbols",< 100 nM
O=S(=O)(c1ccc(C(F)(F)F)cc1)N1C2Cc3n[nH]cc3C1CC(c1ccc(Br)cc1)C2 (stereo not drawn) [compound 106],IC50,[1],< 100 nM
O=S(=O)(c1ccc(C(F)(F)F)nc1)N1C2Cc3[nH]ncc3C1c1cccc(Cl)c12 (stereo not drawn) [compound 229],IC50,[1],100 to 499 nM
O=S(=O)(c1ccc(C(F)(F)F)cc1)N1C2Cc3[nH]ncc3C1c1ccccc12 (racemic) [compound 73],IC50,[1],< 100 nM
O=S(=O)(c1ccc(C(F)(F)F)nc1)N1C2c3cn[nH]c3C(F)(F)C1c1c(F)cccc12 (stereo not drawn) [compound 215],IC50,[1],< 100 nM
"O=S(=O)(c1ccc(Cl)cc1)N1C2Cc3[nH]ncc3C1c1c(F)cccc12 (single isomer, unassigned) [compound 231]",IC50,[1],< 100 nM
Cc1cc(C2CC3Cc4[nH]ncc4C(C2)N3S(=O)(=O)c2ccc(Cl)cc2)on1 (racemic) [compound 76],IC50,[1],< 100 nM
O=S(=O)(c1ccc(C(F)(F)F)cc1)N1C2Cc3[nH]ncc3C1c1cc3c(cc12)OCO3 (racemic) [compound 91],IC50,[1],< 100 nM
"O=S(=O)(c1ccc(C(F)(F)F)cc1)N1C2Cc3[nH]ncc3C1c1ncccc12 (single isomer, unassigned) [compound 102]",IC50,[1],500 to 999 nM
O=S(=O)(c1ccc(C(F)(F)F)cc1)N1C2Cc3[nH]ncc3C1c1cccc(-c3cccc(C(F)(F)F)c3)c1C2 (racemic) [compound 178],IC50,[1],< 100 nM
COC(=O)c1cccc2c1C1Cc3[nH]ncc3C2N1S(=O)(=O)c1ccc(C(F)(F)F)nc1 (racemic) [compound 220],IC50,[1],< 100 nM
Cc1cc(F)cc2c1C1c3c[nH]nc3CC2N1S(=O)(=O)c1ccc(C(F)(F)F)nc1 (racemic) [compound 151],IC50,[1],< 100 nM
